Values joined by “and” are separate entries in the source; they are usually repeats but may differ in a detail not shown here. Equal values may be shown once. Toxic doses and inconclusive results are not listed. Rule as the data show it: active = T/C of 150% or more; inactive = T/C below 125%.
System: L1210 leukemia ip in BDF1 mice, survival T/C
Test: NCI In Vivo Anticancer Drug Screen. Data for tumor model L1210 Leukemia (intraperitoneal) in B6D2F1 (BDF1) mice
Settings: endpoint: mean survival time, higher = longer survival
Procedure, shortened: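 Each compound was tested against a transplantable tumor grown in mice. The endpoint was survival, with treated animals benchmarked against vehicle controls as a simple ratio.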

[1] = dose: 100.0 mg/kg/injection, schedule: Q01DX009 (ip), vehicle: Klucel (hydroxypropylcellulose) (HPC)
[2] = dose: 200.0 mg/kg/injection, schedule: Q01DX009 (ip), vehicle: Klucel (hydroxypropylcellulose) (HPC)
[3] = dose: 25.0 mg/kg/injection, schedule: Q04DX002 (ip), vehicle: saline with Tween-80
[4] = dose: 50.0 mg/kg/injection, schedule: Q04DX002 (ip), vehicle: saline with Tween-80

Measured: T/C

O=C(Nc1ccc(C(=O)Nc2nccs2)cc1)c1ccc(C(=O)Nc2ccc(C(=O)Nc3nccs3)cc2)c(Cl)c1
inactive: dose: 4.4 mg/kg/injection, schedule: Q01DX Z (ip), vehicle: saline 106 % of control | dose: 6.6 mg/kg/injection, schedule: Q01DX Z (ip), vehicle: saline 97 % of control | dose: 10.0 mg/kg/injection, schedule: Q01DX Z (ip), vehicle: saline 97 % of control | dose: 15.0 mg/kg/injection, schedule: Q01DX Z (ip), vehicle: saline 93 % of control and 97 % of control and 106 % of control | dose: 22.5 mg/kg/injection, schedule: Q01DX Z (ip), vehicle: saline 104 % of control | dose: 30.0 mg/kg/injection, schedule: Q01DX Z (ip), vehicle: saline 100 % of control | dose: 33.75 mg/kg/injection, schedule: Q01DX Z (ip), vehicle: saline 111 % of control | dose: 50.6 mg/kg/injection, schedule: Q01DX Z (ip), vehicle: saline 93 % of control | dose: 60.0 mg/kg/injection, schedule: Q01DX Z (ip), vehicle: saline 97 % of control | dose: 120.0 mg/kg/injection, schedule: Q01DX Z (ip), vehicle: saline 98 % of control and 100 % of control | dose: 180.0 mg/kg/injection, schedule: Q01DX Z (ip), vehicle: saline 93 % of control | dose: 270.0 mg/kg/injection, schedule: Q01DX Z (ip), vehicle: saline 92 % of control | dose: 400.0 mg/kg/injection, schedule: Q01DX Z (ip), vehicle: saline 93 % of control

Cc1ccc(NC(=O)OCCN(CCOC(=O)Nc2ccc(C)cc2)Cc2ccccc2)cc1
inactive: dose: 100.0 mg/kg/injection, schedule: Q01DX001 (ip), vehicle: saline 94 % of control | dose: 200.0 mg/kg/injection, schedule: Q01DX001 (ip), vehicle: saline 91 % of control | dose: 400.0 mg/kg/injection, schedule: Q01DX001 (ip), vehicle: saline 94 % of control

CCCCCCCCCC(CC)(CCCCCCC)CCCCCCCC (stereo not given)
inactive: dose: 100.0 mg/kg/injection, schedule: Q01DX001 (ip), vehicle: saline with Tween-80 103 % of control | dose: 200.0 mg/kg/injection, schedule: Q01DX001 (ip), vehicle: saline with Tween-80 99 % of control | dose: 400.0 mg/kg/injection, schedule: Q01DX001 (ip), vehicle: saline with Tween-80 103 % of control

CCN(CC)CCNc1nc2ccc(C(=O)O)cc2s1
inactive: dose: 75.0 mg/kg/injection, schedule: Q01DX001 (ip), vehicle: saline 100 % of control | dose: 150.0 mg/kg/injection, schedule: Q01DX001 (ip), vehicle: saline 98 % of control | dose: 300.0 mg/kg/injection, schedule: Q01DX001 (ip), vehicle: saline 94 % of control

COc1ccc(OC(=O)Nc2cccc(Cl)c2)cc1
inactive: [1] 94 % of control | [2] 100 % of control | dose: 400.0 mg/kg/injection, schedule: Q01DX009 (ip), vehicle: Klucel (hydroxypropylcellulose) (HPC) 100 % of control

CCCC1(CCC)CN(CO)C1=O
inactive: dose: 25.0 mg/kg/injection, schedule: Q01DX009 (ip), vehicle: saline 102 % of control | dose: 25.0 mg/kg/injection, schedule: Q04DX003 (ip), vehicle: saline 93 % of control | dose: 50.0 mg/kg/injection, schedule: Q01DX009 (ip), vehicle: saline 102 % of control | dose: 50.0 mg/kg/injection, schedule: Q04DX003 (ip), vehicle: saline 98 % of control | dose: 100.0 mg/kg/injection, schedule: Q01DX009 (ip), vehicle: saline 100 % of control | dose: 100.0 mg/kg/injection, schedule: Q04DX003 (ip), vehicle: saline 104 % of control | dose: 200.0 mg/kg/injection, schedule: Q01DX009 (ip), vehicle: saline 97 % of control | dose: 200.0 mg/kg/injection, schedule: Q04DX003 (ip), vehicle: saline 104 % of control | dose: 400.0 mg/kg/injection, schedule: Q04DX003 (ip), vehicle: saline 88 % of control

CC(=O)OCc1ccc(OC(C)=O)cn1
inactive: dose: 100.0 mg/kg/injection, schedule: Q01DX001 (ip), vehicle: carboxymethylcellulose (CMC) 100 % of control | dose: 200.0 mg/kg/injection, schedule: Q01DX001 (ip), vehicle: carboxymethylcellulose (CMC) 103 % of control | dose: 400.0 mg/kg/injection, schedule: Q01DX001 (ip), vehicle: carboxymethylcellulose (CMC) 94 % of control

C1=C(c2ccccc2)C(c2ccccc2)c2ccccc21 (stereo not given)
inactive: dose: 12.5 mg/kg/injection, schedule: Q04DX002 (ip), vehicle: saline with Tween-80 90 % of control | [3] 98 % of control | [4] 90 % of control | dose: 400.0 mg/kg/injection, schedule: Q04DX003 (ip), vehicle: saline with Tween-80 90 % of control

O=C(CCBr)c1ccc(Cl)cc1
inactive: dose: 6.25 mg/kg/injection, schedule: Q01DX009 (ip), vehicle: saline with Tween-80 93 % of control | dose: 12.5 mg/kg/injection, schedule: Q01DX009 (ip), vehicle: saline with Tween-80 91 % of control | dose: 25.0 mg/kg/injection, schedule: Q01DX009 (ip), vehicle: saline with Tween-80 93 % of control

CNC(=O)Oc1ccccc1C(Cl)(Cl)Cl
inactive: dose: 50.0 mg/kg/injection, schedule: Q01DX009 (ip), vehicle: Klucel (hydroxypropylcellulose) (HPC) 97 % of control | [1] 101 % of control | [2] 112 % of control

Cc1cc(O)c2cc3c(O)c(O)ccc3cc2c1
inactive: dose: 0.5 mg/kg/injection, schedule: Q01DX015 (ip), vehicle: saline 94 % of control | dose: 1.0 mg/kg/injection, schedule: Q01DX015 (ip), vehicle: saline 96 % of control | dose: 2.0 mg/kg/injection, schedule: Q01DX015 (ip), vehicle: saline 96 % of control | dose: 4.0 mg/kg/injection, schedule: Q01DX015 (ip), vehicle: saline 100 % of control and 109 % of control | dose: 5.0 mg/kg/injection, schedule: Q01DX001 (ip), vehicle: saline 112 % of control | dose: 6.2 mg/kg/injection, schedule: Q01DX001 (ip), vehicle: carboxymethylcellulose (CMC) 108 % of control | dose: 8.0 mg/kg/injection, schedule: Q01DX015 (ip), vehicle: saline 103 % of control | dose: 10.0 mg/kg/injection, schedule: Q01DX001 (ip), vehicle: saline 115 % of control | dose: 12.5 mg/kg/injection, schedule: Q01DX001 (ip), vehicle: carboxymethylcellulose (CMC) 104 % of control | dose: 25.0 mg/kg/injection, schedule: Q01DX001 (ip), vehicle: carboxymethylcellulose (CMC) 110 % of control

Cc1ccc(S(=O)(=O)OC2C(O)C(CO)OC2n2c(Br)c(C(N)=O)c3c(N)ncnc32)cc1 (stereo not given)
inactive: dose: 25.0 mg/kg/injection, schedule: Q01DX009 (ip), vehicle: water 100 % of control | dose: 50.0 mg/kg/injection, schedule: Q01DX009 (ip), vehicle: water 97 % of control | dose: 100.0 mg/kg/injection, schedule: Q01DX009 (ip), vehicle: water 95 % of control | dose: 200.0 mg/kg/injection, schedule: Q01DX009 (ip), vehicle: water 93 % of control

CC(C)CC(C=O)(CCN(C)C)c1cccc2ccccc12 (stereo not given)
inactive: dose: 12.5 mg/kg/injection, schedule: Q04DX003 (ip), vehicle: saline with Tween-80 107 % of control | dose: 25.0 mg/kg/injection, schedule: Q04DX003 (ip), vehicle: saline with Tween-80 103 % of control | dose: 50.0 mg/kg/injection, schedule: Q04DX003 (ip), vehicle: saline with Tween-80 92 % of control

NC(=O)c1c(/N=C/c2cc(Br)ccc2O)sc2c1CCCC2
inactive: [3] 87 % of control | [4] 87 % of control | dose: 100.0 mg/kg/injection, schedule: Q04DX002 (ip), vehicle: saline with Tween-80 93 % of control | dose: 400.0 mg/kg/injection, schedule: Q04DX002 (ip), vehicle: saline with Tween-80 87 % of control

CC(=O)Nc1cccc([As](=O)(c2cccc(NC(C)=O)c2)c2cccc(NC(C)=O)c2)c1
inactive: dose: 55.0 mg/kg/injection, schedule: Q01DX Z (ip), vehicle: methylcellulose (MC) 98 % of control | dose: 125.0 mg/kg/injection, schedule: Q01DX Z (ip), vehicle: methylcellulose (MC) 98 % of control

— PubChem BioAssay AID248 (DTP/NCI, 2004)
